Test results published in PMC12392461, “Beyond Estrogenicity: A Comparative Assessment of Bisphenol A and Its Alternatives in In Vitro Assays Questions Safety of Replacements” (Environmental Science & Technology, 2025).
Where two headings read alike, the source gives them in different places.

Columns and labels:
[1] = target: T1, Peroxisome proliferator-activated receptor γ (Homo sapiens, UniProt P37231); assay: cell-based; conditions: for EC10, linear: linear model; for logEC10: log-logistic model
T1 sequence (P37231 238-505 limits assumed): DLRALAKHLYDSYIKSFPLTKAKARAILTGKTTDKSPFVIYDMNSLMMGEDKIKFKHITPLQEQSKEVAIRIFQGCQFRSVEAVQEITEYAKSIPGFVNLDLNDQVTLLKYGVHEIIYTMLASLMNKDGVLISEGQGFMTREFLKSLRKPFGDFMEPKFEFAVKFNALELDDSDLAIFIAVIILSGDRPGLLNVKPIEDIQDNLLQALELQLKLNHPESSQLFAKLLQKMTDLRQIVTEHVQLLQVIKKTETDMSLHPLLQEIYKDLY
Text: All bioassay media components and the ERα-UAS-bla GripTite and PPARγ-UAS-bla cells were obtained from Thermo Fisher Scientific (Waltham, MA, USA). AREc32 reporter gene cells based on MCF7 were provided by C. Roland Wolf (Cancer Research UK); AhR CALUX cells (H4L7.5c2 derived from H4IIe) were provided by Michael Denison (UC Davis, USA); and SH-SY5Y cells were purchased from Sigma-Aldrich.
(§1) Cell culture conditions and bioassay protocols including response detection are provided in Text S2.1–2.4 and Table S3. − Cell viability was determined from cell confluency using an IncuCyte S3 Live-Cell Analysis System (Sartorius AG, Essen, Germany) before and after exposure, except for SH-SY5Y cells (live–dead staining with Nuclear Green LcS1 and propidium iodide, Abcam, UK). For metabolic activation experiments, cell viability was assessed using the ToxBLAzer DualScreen Kit (Thermo Fisher Scientific) to capture the remaining toxicity in ERα-UAS-bla GripTite after treatment with the aCYP catalyst (details in Text S2.4).
(§2) For ARE, the concentration that triggered an induction ratio of 1.5 (ECIR1.5) was used as the benchmark value, as detailed in Text S2.5. IC10 values also served as a threshold for data analysis in all assays; only concentrations below IC10 were considered when deriving EC10 or ECIR1.5.
The maximum efficacy (Emax%) refers to the maximum of the log–logistic concentration–response curve attained by test chemicals compared to the reference chemical’s maximum and was obtained for both ERα and PPARγ. […]
S2: Cell culture and bioassays
S2.1: Cell Culturing Conditions
All suppliers and sources are given in detail in SI-Excel S3. The bioassay media for the different assays were prepared as follows: Assay medium for ER alpha-UAS-bla GripTite (ERα) and […]
2% charcoal-stripped FBS, and 100 U/mL penicillin-streptomycin. […]
(§3) S2.2: Cell Seeding and Incubation. For all bioassays, cell suspensions in the respective assay medium were dispensed into each well of 384-well plates using a MultiFlo Dispenser (Biotek, (now Agilent), Winooski, VT, U.S.). After seeding, the plates were incubated at 37° C and 5% CO₂ for […]. The final cell densities and plate types were as follows: Black poly-D-lysine […]
6500 cells/well, ERα: 5000 cells/well. White 384-well plates with a clear bottom (Product No. […]
S2.3: Chemical Dosing and Assay Analysis Procedures.

HEK293T (ERα) = test system: HEK293T (ERα)
Protocol: as §1, §2
(§4) We measured the cytotoxicity of BPA and its alternatives in HEK293H (PPARγ), HEK293T (ERα), H4IIe (AhR CALUX), MCF7 (ARE/MMP), and differentiated SH-SY5Y cells (Table S6). […]
as §3
(§5) 6500 cells/well, ERα: 5000 cells/well. White 384-well plates with a clear bottom (Product No.
(§6) NYC, U.S.) for AhR: 3250 cells/well. Black Collagen I coated plates were used (Product No.
(§7) S2.3: Chemical Dosing and Assay Analysis Procedures. The dosing procedure and high-throughput assay workflow have been described in detail before. 9 The dosing concentrations […]
(§8) Stock solutions were then either added directly to the respective cell culture medium or evaporated under nitrogen, followed by replenishment with fresh medium. The final solvent content in each well was kept below 1% for methanol, 0% for acetonitrile.
(§9) Dosing plates were prepared as 11 -step serial dilutions using a Hamilton Microlab Star robotic system (Hamilton, Bonaduz, Switzerland), and chemicals were dosed in duplicates by transferring 10 μL twice from the dosing plates to the cell plates . After quantifying cell confluency as described in S2. 4., the exposed cells were incubated at 37° C and 5% CO₂ for an additional 24 h. All chemicals were tested in all assays with at least three independent […]
(§10) S2.4: Cell Viability Measurement s and bioanalytical protocols . The confluency as a measure of cell viability was determined with an IncuCyte S3 Live -Cell Analysis System (Sartorius AG, Essen, Germany). With this method the confluency of cells in a microscopy image are normalized to control wells without cells and compared before and after 24 hours of exposure.
(§11) This method has been described previously 13. […]

MCF7 (ARE/MMP) = test system: MCF7 (ARE/MMP)
Protocol: as §1, §2, §4, §3, §5, §6, §7, §8, §9, §10, §11

HEK293H (PPARγ) = test system: HEK293H (PPARγ)
Protocol: as §1, §2, §4, §3, §5, §6, §7, §8, §9, §10, §11

H4IIe (AhR CALUX) = test system: H4IIe (AhR CALUX)
Protocol: as §1, §2, §4, §3, §5, §6, §7, §8, §9, §10, §11

[2] = PPARγ bioassay, dosing range all

Structure (SMILES): CC(C)(c1ccc(O)cc1)c1ccc(O)cc1 [BPA, 4,4'-(Propane-2,2-diyl)diphenol, reference compound]
- EC10, linear [1, 2]: no effect
- logEC10 [1, 2]: no effect
- PPARγ activation ([1]; at concentrations up to IC10): did not activate PPARγ
- IC10, linear (HEK293T (ERα)): no cytotoxicity
- logIC10 (HEK293T (ERα)): no cytotoxicity
- Toxic ratio (TR) TRERα (HEK293T (ERα); human, 24 h): 0.28
- logIC10 (HEK293T (ERα); human, 24 h): -4.33
- Toxic ratio (TR) TRARE (MCF7 (ARE/MMP); human, 24 h): 0.37
- Toxic ratio (TR) TRMMP (MCF7 (ARE/MMP); human, 24 h): 0.31
- Toxic ratio (TR) TRPPARγ (HEK293H (PPARγ); human, 24 h): 0.38
- logIC10 (HEK293H (PPARγ); human, 24 h): -4.45
- IC10, linear (H4IIe (AhR CALUX)): no cytotoxicity
- logIC10 (H4IIe (AhR CALUX); rat, 24 h): -3.77

Structure (SMILES): Cc1cc(Cc2cc(C)c(O)c(C)c2)cc(C)c1O [TMBPF, Bis(3,5-dimethyl-4-hydroxyphenyl)methane]
- EC10, PPARγ (M) ([1]; 10% of maximum effect of rosiglitazone): 3.29 × 10^–7 M
- EC10, linear transformed [1, 2]: 3.29E-07
- EC10, linear [1, 2]: 5.55E-07
- logEC10 [1, 2]: -6.48
- SR-ScorePPARγ ([1]; SR-Score, sigma k=1, x=5): 0.98
- Specificity ratio (SRbaseline) SRPPARγ ([1]; against baseline cytotoxicity): 13.64
- Specificity ratio (SRcytotoxicity) SRPPARγ ([1]; against experimental cytotoxicity): 8.97
- EC10, PPARγ ([1]; effect): 0.329 µM
- log(1/EC10) PPARγ ([1]; input of the ToxPi score, values up to 1.00): 0.92
- Emax ([1]; read-out: Emax%PPARγ): 18%
- IC10, linear transformed (HEK293T (ERα); Bioassay ERα, cytotoxicity, dosing range all): 5.55E-06
- IC10, linear (HEK293T (ERα); Bioassay ERα, cytotoxicity, dosing range all, linear model fit): 6.58E-06
- logIC10 (HEK293T (ERα); Bioassay ERα, cytotoxicity, dosing range all, log-logistic model fit): -5.17
- Toxic ratio (TR) TRERα (HEK293T (ERα); against baseline cytotoxicity): 0.68
- IC10, HEK293, ERα (HEK293T (ERα); cytotoxicity, HEK293 (ERα assay cells)): 6.58 µM
- IC10, linear (MCF7 (ARE/MMP); Bioassay ARE, cytotoxicity, dosing range all, linear model fit): no cytotoxicity
- logIC10 (MCF7 (ARE/MMP); Bioassay ARE, cytotoxicity, dosing range all, log-logistic model fit): no cytotoxicity
- IC10, linear transformed (MCF7 (ARE/MMP); MMP bioassay cytotoxicity, dosing range all): 1.42E-05
- IC10, linear (MCF7 (ARE/MMP); MMP bioassay cytotoxicity, dosing range all, linear model): no cytotoxicity
- logIC10 (MCF7 (ARE/MMP); MMP bioassay cytotoxicity, dosing range all, log-logistic model): -4.85
- Toxic ratio (TR) TRMMP (MCF7 (ARE/MMP); against baseline cytotoxicity, MMP readout): 0.95
- IC10, MCF7, MMP (MCF7 (ARE/MMP); cytotoxicity, MCF7, MMP readout): 14.2 µM
- IC10, linear transformed (HEK293H (PPARγ); PPARγ bioassay cytotoxicity, dosing range all): 4.21E-07
- IC10, linear (HEK293H (PPARγ); PPARγ bioassay cytotoxicity, dosing range all, linear model): 3.65E-06
- logIC10 (HEK293H (PPARγ); PPARγ bioassay cytotoxicity, dosing range all, log-logistic model): -5.53
- Toxic ratio (TR) TRPPARγ (HEK293H (PPARγ); against baseline cytotoxicity): 1.52
- IC10, HEK293, PPARγ (HEK293H (PPARγ); cytotoxicity, HEK293 (PPARγ assay cells)): 2.95 µM
- IC10, linear transformed (H4IIe (AhR CALUX); Bioassay AhR, cytotoxicity, dosing range all): 1.05E-04
- IC10, linear (H4IIe (AhR CALUX); Bioassay AhR, cytotoxicity, dosing range all, linear model fit): 1.11E-04
- logIC10 (H4IIe (AhR CALUX); Bioassay AhR, cytotoxicity, dosing range all, log-logistic model fit): -3.98
- Toxic ratio (TR) TRAhR (H4IIe (AhR CALUX); against baseline cytotoxicity): 0.13
- IC10, H4IIe, AhR (H4IIe (AhR CALUX); cytotoxicity, H4IIe (AhR assay cells)): 105 µM

Structure (SMILES): O=S(=O)(c1ccc(O)cc1)c1ccccc1O [2,4-BPS, 2,4'-Dihydroxydiphenyl sulfone]
- EC10, linear [1, 2]: no effect
- logEC10 [1, 2]: no effect
- Toxic ratio (TR) TRERα (HEK293T (ERα); human, 24 h): 1.27
- logIC10 (HEK293T (ERα); human, 24 h): -3.36
- Toxic ratio (TR) TRARE (MCF7 (ARE/MMP); human, 24 h): 0.77
- Toxic ratio (TR) TRMMP (MCF7 (ARE/MMP); human, 24 h): 0.77
- logIC10 (MCF7 (ARE/MMP); human, 24 h): -3.05
- Toxic ratio (TR) TRPPARγ (HEK293H (PPARγ); human, 24 h): 2.23
- logIC10 (HEK293H (PPARγ); human, 24 h): -3.73
- Toxic ratio (TR) TRAhR (H4IIe (AhR CALUX); rat, 24 h): 3.11
- logIC10 (H4IIe (AhR CALUX); rat, 24 h): -3.52
